Legend:
[1] = target: Cannabinoid receptor 1 (Homo sapiens, UniProt P21554); assay: (§1) cAMP Assay: CHO cells expressing human CB1 or CB2 receptors are seeded 17-24 hours prior to the experiment 50.000 cells per well in a black 96 well plate with flat clear bottom (Corning Costar #3904) in DMEM (Invitrogen No. 31331), 1×HT supplement, with 10% fetal calf serum and incubated at 5% CO2 and 37° C. in a humidified incubator. The growth medium was exchanged with Krebs Ringer Bicarbonate buffer with 1 mM IBMX and incubated at 30° C. for 30 min. Compounds were added to a final assay volume of 100 μl and incubated for 30 min at 30° C. Using the cAMP-Nano-TRF detection kit the assay (Roche Diagnostics) was stopped by the addition of 50 μl lysis reagent (Tris, NaCl, 1.5% Triton X100, 2.5% NP40, 10% NaN3) and 50 μl detection solutions (20 μM mAb Alexa700-cAMP 1:1, and 48 μM Ruthenium-2-AHA-cAMP) and shaken for 2 h at room temperature. The time-resolved energy transfer is measured by a TRF reader (Evotec Technologies GmbH), equipped with a ND:YAG laser as excitation source. The plate is measured twice with the excitation at 355 nm and at the emission with a delay of 100 ns and a gate of 100 ns, total exposure time 10s at 730 (bandwidth 30 nm) or 645 nm (bandwidth 75 nm), respectively.; format: functional, cell-based
[2] = target: Cannabinoid receptor 2 (Homo sapiens, UniProt P34972); assay: as §1; format: functional, cell-based
Sequence of Cannabinoid receptor 2 (P34972 whole entry): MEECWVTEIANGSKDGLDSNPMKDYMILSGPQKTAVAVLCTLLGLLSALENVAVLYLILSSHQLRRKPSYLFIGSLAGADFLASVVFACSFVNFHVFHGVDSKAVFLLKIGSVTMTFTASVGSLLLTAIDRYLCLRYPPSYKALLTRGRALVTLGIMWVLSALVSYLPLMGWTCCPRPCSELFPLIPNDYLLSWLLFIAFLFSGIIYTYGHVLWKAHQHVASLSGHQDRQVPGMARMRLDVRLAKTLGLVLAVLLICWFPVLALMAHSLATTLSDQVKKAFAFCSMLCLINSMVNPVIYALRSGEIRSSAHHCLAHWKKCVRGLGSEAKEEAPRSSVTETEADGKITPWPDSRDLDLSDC

Sequence of Cannabinoid receptor 1 (P21554 whole entry): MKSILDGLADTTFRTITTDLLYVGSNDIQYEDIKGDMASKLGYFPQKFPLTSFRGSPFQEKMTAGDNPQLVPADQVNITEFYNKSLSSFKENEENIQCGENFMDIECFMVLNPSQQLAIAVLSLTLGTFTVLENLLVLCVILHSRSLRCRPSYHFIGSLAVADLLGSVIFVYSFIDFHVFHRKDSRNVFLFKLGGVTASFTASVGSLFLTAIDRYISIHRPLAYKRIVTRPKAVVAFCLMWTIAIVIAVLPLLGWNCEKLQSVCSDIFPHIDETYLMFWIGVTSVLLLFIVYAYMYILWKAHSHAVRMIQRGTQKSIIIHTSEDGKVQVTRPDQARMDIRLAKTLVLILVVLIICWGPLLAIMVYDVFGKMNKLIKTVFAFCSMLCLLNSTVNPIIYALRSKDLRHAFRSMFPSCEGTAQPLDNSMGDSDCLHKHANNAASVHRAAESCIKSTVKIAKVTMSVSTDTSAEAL

O=C(NN1CCCCC1)c1cnc(C2CC2)c(OCC2CC2)n1
EC50 [1]: > 10000 nM
EC50 [2]: 327 nM

CC(C)(O)[C@H](CC1CC1)NC(=O)c1cnc(C2CC2)c(OCC2CC2)n1
EC50 [1]: > 10000 nM
EC50 [2]: 198 nM

CNC(=O)C(CC1CCC1)NC(=O)c1cnc(N2CC(F)(F)C2)c(OCC2CC2)n1 (centres undefined)
EC50 [1]: > 10000 nM
EC50 [2]: 51.7 nM

O=C(NC1(CO)CCCCC1)c1cnc(N2CC(F)(F)C2)c(OCC2CC2)n1
EC50 [1]: > 10000 nM
EC50 [2]: 1.8 nM

CC(C)(CCc1ccncc1)NC(=O)c1cnc(C2CC2)c(OCC2CC2)n1
EC50 [2]: 280 nM

Source: ChEMBL document CHEMBL3886855, “Pyrazine derivatives” (2016)
